Source: US11180484B2, “Pyrazole derivatives as plasma kallikrein inhibitors” (KALVISTA PHARMACEUTICALS LIMITED, priority 2016, dated 2021)
In brackets after ≈: the same amount, converted by molar mass. Several values for one entry are separate records, joined by “and”; a condition that tells them apart may be missing. Equal entries are not always repeated. Where two headings read alike, the source gives them in different places.

Experiments:
[1] = Solubility in water and 0.1N HCl (aq); format: physicochemical; conditions: thermodynamic from solid, incubated at 1 mg/mL, 37° C.
Method: Solubility was determined in water and 0.1N HCl (aq). Test compounds were incubated at 1 mg/mL for 24 hrs at 37° C. on a shaking platform (500 rpm). Samples were taken at 1, 4 and 24 hrs and centrifuged at 15,000 g for 10 min. Test compound concentration in the supernatant was determined by LCMS against a standard curve.

[2] = biological target: T1, Human plasma kallikrein (Homo sapiens (Human), UniProt P03952); assay: Determination of the IC50 for plasma kallikrein; format: biochemical; conditions: 25° C., substrate H-DPro-Phe-Arg-AFC; read-out: IC50 (human PKal)
Method: (§1) Human plasma kallikrein (Protogen) was incubated at 25° C. with the fluorogenic substrate H-DPro-Phe-Arg-AFC and various concentrations of the test compound. Residual enzyme activity (initial rate of reaction) was determined by measuring the change in […] at 410 nm and the IC50 value for the test compound was determined.

[3] = biological target: Human KLK1 (Homo sapiens (Human), UniProt P06870); assay: Determination of the IC50 for KLK1; format: biochemical; conditions: 25° C., substrate H-DVal-Leu-Arg-AFC
Method: as §1, with “KLK1 (Callbiochem)” for “plasma kallikrein (Protogen)”, “H-DVal-Leu-Arg-AFC” for “H-DPro-Phe-Arg-AFC”

[4] = biological target: Human Factor XIIa (Homo sapiens (Human), UniProt P00748); assay: Factor XIIa inhibitory activity in vitro; format: biochemical; conditions: 25° C., substrate H-DPro-Phe-Arg-AFC; read-out: IC50 (human FXIIa)
Method: as §1, with “Factor XIIa (Enzyme Research Laboratories)” for “plasma kallikrein (Protogen)”

[5] = biological target: Human FXIa (Homo sapiens (Human), UniProt P03951); assay: Determination of the % inhibition / IC50 for FXIa; format: biochemical; conditions: for inhibition at 40 µM: 40 μM test compound, read-out: % Inhibition @ 40 μM (human FXIa); for IC50: 25° C., substrate Z-Gly-Pro-Arg-AFC
Method: FXIa inhibitory activity in vitro was determined using standard published methods (see e.g. Johansen et al., Int. J. Tiss. Reac. 1986, 8, 185; Shori et al., Biochem. Pharmacol., 1992, 43, 1209; Sturzebecher et al., Biol. Chem. Hoppe-Seyler, 1992, 373, 1025). […]

[6] = Pharmacokinetics following a single oral dose in male Sprague-Dawley rats; format: in vivo; conditions: rat, single po dose (nominal 10 mg/kg; actual dose per row in column Dose po), 10% DMSO/10% cremophor/80% SWFI, plasma
Method: Pharmacokinetic studies of the compounds in Table 13 were performed to assess the pharmacokinetics following a single oral dose in male Sprague-Dawley rats. Two rats were given a single po dose of 5 mL/kg of a nominal 2 mg/mL (10 mg/kg) composition of test compound in vehicle. Following dosing, blood samples were collected over a period of 24 hours. Sample times were 5, 15 and 30 minutes then 1, 2, 4, 6, 8 and 12 hours. Following collection, blood samples were centrifuged and the plasma fraction analysed for concentration of test compound by LCMS.

[7] = Plasma protein binding (PPB), rapid equilibrium dialysis, rat plasma; format: in vitro ADME; conditions: 5 μM test compound, dialysis 5 hrs at 37° C.
[8] = biological target: trypsin; assay: Determination of enzyme selectivity: trypsin; format: biochemical, human; conditions: substrate at Km concentration
Method: Human serine protease enzymes plasmin, thrombin and trypsin were assayed for enzymatic activity using an appropriate fluorogenic substrate. Protease activity was measured by monitoring the accumulation of liberated fluorescence from the substrate over 5 minutes. The linear rate of fluorescence increase per minute was expressed as percentage (%) activity. The Km for the cleavage of each substrate was determined by standard transformation of the Michaelis-Menten equation.

[9] = Intrinsic clearance in rat liver microsomes; format: in vitro ADME; conditions: rat liver microsomes 0.5 mg/mL, 5 μM test compound, 37° C.; read-out: rat liver microsome (Clint μL/min/mg protein)
Method: Rat or human liver microsomes (0.5 mg/mL; Corning) were incubated with 5 μM test compound at 37° C. on a shaking platform (150 rpm). Samples were taken at 0, 6, 12, 18, 24 and 60 min and test compound concentrations were determined by LCMS against a calibration curve.

[10] = biological target: T1, Human plasma kallikrein; assay: Determination of the Ki for plasma kallikrein (mixed-model inhibition); format: biochemical; conditions: for Ki: human plasma kallikrein, mixed-model inhibition equation
[11] = simulated gastric fluid, 0.1N HCl (aq), read-out: Solubility 0.1N HCl (aq)
[12] = water, read-out: Solubility Water

T1 sequence (P03952 391-638): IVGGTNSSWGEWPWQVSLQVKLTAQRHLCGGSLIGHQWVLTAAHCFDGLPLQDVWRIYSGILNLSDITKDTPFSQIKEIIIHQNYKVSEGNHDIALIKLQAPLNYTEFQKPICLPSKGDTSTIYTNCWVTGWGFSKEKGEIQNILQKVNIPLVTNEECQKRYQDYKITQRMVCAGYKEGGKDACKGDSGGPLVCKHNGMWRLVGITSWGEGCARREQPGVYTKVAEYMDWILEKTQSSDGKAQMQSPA
T1 sequence (P03952 20-390): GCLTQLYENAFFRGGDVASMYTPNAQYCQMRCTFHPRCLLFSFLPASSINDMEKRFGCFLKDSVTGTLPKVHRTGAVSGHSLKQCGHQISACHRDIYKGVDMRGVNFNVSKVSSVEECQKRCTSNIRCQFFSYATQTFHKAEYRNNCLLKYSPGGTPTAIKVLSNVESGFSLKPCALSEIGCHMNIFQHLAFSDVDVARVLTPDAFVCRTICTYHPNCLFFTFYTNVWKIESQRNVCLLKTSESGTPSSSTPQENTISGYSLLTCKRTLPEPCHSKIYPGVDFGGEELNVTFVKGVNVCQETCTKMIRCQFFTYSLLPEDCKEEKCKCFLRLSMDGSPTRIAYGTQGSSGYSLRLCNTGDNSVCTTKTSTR
Human FXIa, sequence (P03951 388-625): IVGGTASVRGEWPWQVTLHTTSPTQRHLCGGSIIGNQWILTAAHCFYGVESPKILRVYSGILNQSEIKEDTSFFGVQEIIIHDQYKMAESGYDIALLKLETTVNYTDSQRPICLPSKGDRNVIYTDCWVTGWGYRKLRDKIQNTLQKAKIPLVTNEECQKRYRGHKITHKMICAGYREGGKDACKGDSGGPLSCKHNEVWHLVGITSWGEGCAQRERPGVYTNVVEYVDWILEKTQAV
Human FXIa, sequence (P03951 19-387): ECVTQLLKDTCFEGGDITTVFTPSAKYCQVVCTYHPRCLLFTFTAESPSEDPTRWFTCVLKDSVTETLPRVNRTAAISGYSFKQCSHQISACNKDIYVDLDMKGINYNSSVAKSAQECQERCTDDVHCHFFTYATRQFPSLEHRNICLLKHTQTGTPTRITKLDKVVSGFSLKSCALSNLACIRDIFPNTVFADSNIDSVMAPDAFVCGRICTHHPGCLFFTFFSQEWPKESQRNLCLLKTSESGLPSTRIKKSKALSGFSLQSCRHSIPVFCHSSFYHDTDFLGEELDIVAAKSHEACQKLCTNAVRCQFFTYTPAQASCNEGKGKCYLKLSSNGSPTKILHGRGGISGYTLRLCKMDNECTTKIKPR
Human KLK1, sequence (P06870 25-262): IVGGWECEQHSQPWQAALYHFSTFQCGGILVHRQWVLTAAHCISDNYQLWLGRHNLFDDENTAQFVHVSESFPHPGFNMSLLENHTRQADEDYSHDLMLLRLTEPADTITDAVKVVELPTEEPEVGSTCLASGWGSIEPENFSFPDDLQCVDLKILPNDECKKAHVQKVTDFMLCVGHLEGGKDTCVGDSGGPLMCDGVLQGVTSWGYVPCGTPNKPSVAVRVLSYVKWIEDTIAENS
Human Factor XIIa, sequence (P00748 373-615): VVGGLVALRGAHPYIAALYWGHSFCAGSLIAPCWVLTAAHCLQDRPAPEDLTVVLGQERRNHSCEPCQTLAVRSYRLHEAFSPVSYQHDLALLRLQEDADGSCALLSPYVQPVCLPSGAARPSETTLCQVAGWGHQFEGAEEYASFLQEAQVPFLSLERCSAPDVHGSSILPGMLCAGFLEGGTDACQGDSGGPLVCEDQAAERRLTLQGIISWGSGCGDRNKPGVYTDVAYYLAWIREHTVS

solubility [1, 11] | solubility [1, 12] | IC50 [2] | IC50 [3] | IC50 [4] | inhibition at 40 µM [5] | IC50 [5] | Cmax [6] | Tmax [6] | fraction unbound at 5 h, 5 μM [7] | IC50 [8] | microsomal CLint at 5 μM [9] | Ki [10] | Alpha ([10]; parameter of the mixed-model equation indicating mechanism of inhibition) | Compound
19 µg/mL (≈ 34 µM) | 7 µg/mL (≈ 12.5 µM) | 0.6 nM | > 4 µM | > 4 µM | 91% | 3700 nM | 187 ng/mL | 30 min | 0.11 | > 40 µM | 19 µL/min/mg | 0.26 nM | 1.7 | COCc1nn(Cc2ccc(Cn3ccccc3=O)cc2)cc1C(=O)NCc1c(-n2cnnn2)ccc(OC)c1F [Example 39, N-{[2-Fluoro-3-methoxy-6-(1,2,3,4-tetrazol-1-yl)phenyl]methyl}-3-(methoxymethyl)-1-({4-[(2-oxopyridin-1-yl)methyl]phenyl}methyl)pyrazole-4-carboxamide]
924 µg/mL (≈ 1770 µM) | 93 µg/mL (≈ 178 µM) | 1.5 nM | > 40 µM | > 40 µM | 96% | 127 nM | 807 ng/mL | 45 min | 0.05 | > 40 µM | 23 µL/min/mg | 0.38 nM and 0.23 nM |  | COCc1nn(Cc2cnc(N3CCCC3)nc2)cc1C(=O)NCc1c(-n2cnnn2)ccc(OC)c1F [Example 79, N-{[2-Fluoro-3-methoxy-6-(1,2,3,4-tetrazol-1-yl)phenyl]methyl}-3-(methoxymethyl)-1-{[2-(pyrrolidin-1-yl)pyrimidin-5-yl]methyl}pyrazole-4-carboxamide]
